Patent US20140309400A1, “Use of Cell-Permeable Peptide Inhibitors of the JNK Signal Transduction Pathway for the Treatment of Dry Eye Syndrome” (Xigen Inflammation Ltd., priority 2011, published 2014)
Non-standard residues stand in square brackets, D forms with d.

Columns and labels:
Format in all cases: in vivo, female C57BL/6 mice
[1] = tested on: mouse model of scopolamine-induced dry eye; experiment: Tear break-up time (TBUT) test in scopolamine-induced dry eye mice; details: for Mean Calculated TBUT AUC: TID, OU, 5 μL/eye, Days 1 to 21
Procedure: The study consisted of a total of 5 groups of female C57BL/6 mice, comprising 4 groups of 12 mice each and an additional group of 4 mice. Bilateral short-term dry eye was induced by a combination of scopolamine hydrobromide (Sigma-Aldrich Corp., St. Louis, Mo.) injection (subcutaneous (SC), four times daily, 0.5 mg/dose, Days 0-21) and by exposing mice to the drying environment of constant air draft. Starting on Day 1, mice of Groups 1-4 were treated three times daily (TID) for 21 days with bilateral topical ocular (oculus uterque; OU) administration (5 μL/eye/dose) of vehicle (0.9% sterile saline; negative control article); or the peptide of SEQ ID NO: 11 (0.06%, 0.25% and 0.6%). Mice of Group 5 were maintained as un-induced, (no dry eye) untreated controls. During the in-life (treatment) period, clinical observations were recorded once daily; slit-lamp examination (SLE) with corneal fluorescein staining, tear break-up time test (TBUT), and phenol red thread test (PRTT) were performed three times per week. Necropsies were performed on Day 22; eyes, eye lids, conjunctivae, and lacrimal glands were collected from both eyes of each animal. Tissues from the right eyes (oculus dexter, OD) were fixed and then evaluated microscopically. Tissues from the left eyes (oculus sinister; OS) were flash-frozen in liquid nitrogen and stored frozen at −80° C. for possible subsequent analyses. The TBUT test was conducted three times weekly by measuring the time elapsed in seconds between a complete blink after application of fluorescein to the cornea and the appearance of the first random dry spot in the tear film. […] At least ninety seconds later, corneal epithelial damage was graded using a slit-lamp with a cobalt blue filter after another drop of 0.1% fluorescein was reapplied to the cornea; the cornea then was scored per the Draize ocular scale.

[2] = tested on: mouse model of scopolamine-induced dry eye; experiment: Phenol red thread tear test (PRTT) in scopolamine-induced dry eye mice; details: for Mean PRTT AUC: TID, OU, 5 μL/eye, AUC Day 7-21
Procedure: The study consisted of a total of 5 groups of female C57BL/6 mice, comprising 4 groups of 12 mice each and an additional group of 4 mice. Bilateral short-term dry eye was induced by a combination of scopolamine hydrobromide (Sigma-Aldrich Corp., St. Louis, Mo.) injection (subcutaneous (SC), four times daily, 0.5 mg/dose, Days 0-21) and by exposing mice to the drying environment of constant air draft. Starting on Day 1, mice of Groups 1-4 were treated three times daily (TID) for 21 days with bilateral topical ocular (oculus uterque; OU) administration (5 μL/eye/dose) of vehicle (0.9% sterile saline; negative control article); or the peptide of SEQ ID NO: 11 (0.06%, 0.25% and 0.6%). Mice of Group 5 were maintained as un-induced, (no dry eye) untreated controls. During the in-life (treatment) period, clinical observations were recorded once daily; slit-lamp examination (SLE) with corneal fluorescein staining, tear break-up time test (TBUT), and phenol red thread test (PRTT) were performed three times per week. Necropsies were performed on Day 22; eyes, eye lids, conjunctivae, and lacrimal glands were collected from both eyes of each animal. Tissues from the right eyes (oculus dexter, OD) were fixed and then evaluated microscopically. Tissues from the left eyes (oculus sinister; OS) were flash-frozen in liquid nitrogen and stored frozen at −80° C. for possible subsequent analyses. Tear production was measured three times a week in both eyes using PRTT test strips (Zone-Quick; Menicon, Nagoya, Japan). Prior to the first treatment of the day, a thread was applied to the lateral canthus of the conjunctival fornix of each eye for 30 seconds under slit-lamp biomicroscopy. Tear migration up the tread (i.e., the length of the wetted cotton thread) was measured using a millimeter scale.

[3] = tested on: mouse model of scopolamine-induced dry eye; experiment: Histopathology of the right eye (cornea) at necropsy Day 22 in scopolamine-induced dry eye mice
Procedure: The study consisted of a total of 5 groups of female C57BL/6 mice, comprising 4 groups of 12 mice each and an additional group of 4 mice. Bilateral short-term dry eye was induced by a combination of scopolamine hydrobromide (Sigma-Aldrich Corp., St. Louis, Mo.) injection (subcutaneous (SC), four times daily, 0.5 mg/dose, Days 0-21) and by exposing mice to the drying environment of constant air draft. Starting on Day 1, mice of Groups 1-4 were treated three times daily (TID) for 21 days with bilateral topical ocular (oculus uterque; OU) administration (5 μL/eye/dose) of vehicle (0.9% sterile saline; negative control article); or the peptide of SEQ ID NO: 11 (0.06%, 0.25% and 0.6%). […] During the in-life (treatment) period, clinical observations were recorded once daily; slit-lamp examination (SLE) with corneal fluorescein staining, tear break-up time test (TBUT), and phenol red thread test (PRTT) were performed three times per week. […] Tissues from the right eyes (oculus dexter, OD) were fixed and then evaluated microscopically. […] Stained slides were evaluated via light microscopy. […] These tissues were scored for injury based upon a 0-4 scale, with 0 being normal, 1 being minimal, 2 being mild, 3 being moderate, and 4 being severe. […] Conjunctivae were scored for erosion and inflammation as well as presence or absence of goblet cells.

Question: With “NH2-DQSRPVQPFLNLTTPRKPRPPRRRQRRKKRG-COOH (H-[dD][dQ][dS][dR][dP][dV][dQ][dP][dF][dL][dN][dL][dT][dT][dP][dR][dK][dP][dR][dP][dP][dR][dR][dR][dQ][dR][dR][dK][dK][dR]G-OH) [SEQ ID NO: 11]” as the substance, how does the “Mean Calculated TBUT AUC” value ([1]; Group 2: 0.06% (low dose)) read?
Answer: The value was 88.54.

Question: What about the “Mean Calculated TBUT AUC” value ([1]; Group 3: 0.25% (mid dose)) of the same substance?
Answer: The value was 91.19.

Question: What about the “Mean Calculated TBUT AUC” value ([1]; Group 4: 0.6% (high dose)) of the same substance?
Answer: The value was 89.98.

Question: What about the “TBUT means compared with vehicle group” value ([1]; low, medium and high dose (Groups 2, 3 and 4)) of the same substance?
Answer: Its value is “above the vehicle group”.

Question: And the “Dose dependence of TBUT” value ([1]; low, mid and high dose levels (Groups 2-4))?
Answer: The value was “generally dose-dependent increases in TBUT”.

Question: What about the “Dose dependence of PRTT” value ([2]; 0.06%, 0.25% and 0.6% (Groups 2, 3 and 4)) of the same substance?
Answer: The value was “generally dose-dependent increases in PRTT”.

Question: What about the “Mean PRTT AUC” value ([2]; Group 2: 0.06% (low dose)) of the same substance?
Answer: Its value is 39.96.

Question: What about the “Mean PRTT AUC” value ([2]; Group 3: 0.25% (mid dose)) of the same substance?
Answer: The value was 42.79.

Question: What about the “Mean PRTT AUC” value ([2]; Group 4: 0.6% (high dose)) of the same substance?
Answer: The value was 43.17.

Question: And the “Corneal changes (histopathology) in comparison to the other treatment groups” value ([3]; Group 2, low dose (0.06%))?
Answer: The value was “slightly more severe”.

Question: What about the “Reducing/ameliorating the corneal changes (histopathology)” value ([3]; high dose (0.6%)) of the same substance?
Answer: Its value is “most effective”.
